Laboratory results taken from patent US4943646A, “Gallium complexes and solvent extraction of gallium” (Monsanto Company, priority 1987, dated 1990).
Read-outs that look alike come from different tables or passages of the source.

Columns and labels:
[1] = below 0.01M nitric acid; cited from earlier work
[2] = Extent of hydrolysis of hydroxamic acids after extraction, washing and stripping, by spectrophotographic analysis; conditions: for % DECOMPOSITION: additional, less careful determinations (untitled table); for % Decomposition (hydrolysis of hydroxamic acid): after extraction-wash-strip cycle, Table 4
Excerpt: The method measures the apparent molecular absorbance at λ max where the maximum peak is obtained for a monohydroxamato iron (III) complex obtained by treating a specified quantity of the hydroxamic acid solution with an aqueous solution of ferric nitrate and nitric acid and n-butanol. The method is specific for hydroxamic acids and utilizes a peak in the 495-530 nanometer region of the spectrum.

[3] = Organic solubility and viscosity of organic solutions (Table 13); format: physicochemical
Excerpt: The organic solubilities and viscosity characteristics of N-alkylalkanohydroxamic acids, in comparison with N-H hydroxamic acids, are reported in Table 13.

[4] = Hydroxamic acid in the aqueous phase (Example 24); format: physicochemical; conditions: for HA in aqueous phase: Table 19
Protocol: A solution was prepared containing 30% by weight N-methyl naphthenohydroxamic acid in kerosene solvent containing 5% by volume isodecanol. A gallium sulfate solution was prepared by mixing 1 ml of an aqueous gallium sulfate solution, 90.8 grams/liter concentration, with 25 ml deionized water. The thus prepared solution was blended with 25 ml of the N-methyl naphtheno hydroxamic acid solution and 800 microliters of 10N NaOH was added from a microburette. […] The gallium had been extracted into the organic solution. The aqueous phase was replaced with an equal volume of 0.1M sodium acetate, which gave a pH 8.21. A 60 microliter amount of 10N NaOH was added, which gave a 9.3 pH after the phases were blended for 20 minutes. […] Additional increments of l0N NaOH were added and gallium concentrations were determined after blending, with results as reported in Table 19. All blending operations were conducted at about 60° C.
The results in Table 19 indicate that the stripping into the aqueous phase is almost negligible at pH below about 11, and in fact the 15 ppm values reported are at about the limit of the analytical method used. […] It appears that efficient extraction can be effected under alkaline conditions ranging from pH 7 to about 11. In the initial result at pH 11.91, a large amount of the hydroxamic acid was stripped into the aqueous phase. However, after an additional amount of isodecanol was added, the phases were easily separated and hydroxamic acid was not found in the aqueous phase. Thus, for pH over about 11.5 it is greatly advantageous to have a coordination solvent such as a long-chain alkanol or other water-insoluble alcohol present in substantial quantity, such as around 20% or more by volume of the organic solvents present. The coordinating solvent modifier assists in phase separation and in avoiding undue loss of the hydroxamic acid to the aqueous stripping solution. Of course stripping the gallium can be accomplished despite significant loss of the hydroxamic acid, and the hydroxamic acid can be recycled with the stripping solution or recovered therefrom.

[5] = Analysis of hydroxamic acid remaining after acid stripping (Example 11); format: physicochemical
Excerpt: The organic solutions remaining after the acid stripping were washed with water and the petroleum ether was stripped under vacuum. […] Analysis of the unsubstituted naphthenohydroxamic acid indicated 91% decomposition. This example also indicates the usefulness of diluting the organic phase with a volatile, water immiscible organic solvent to provide more complete stripping of metal. After stripping the extractant is regenerated by distilling off the volatile solvent. Both organic liquids are recycled.

[6] = Percentage of extractant pulled into the aqueous phase by Fe (III) in 0.25M H2SO4; format: physicochemical; conditions: Fe (III) in 0.25M H2SO4 (pH=0.3), 22 °C
Protocol: Tests were conducted on a series of hydroxamic acids to determine the percentages of the extractants pulled into an aqueous phase from an organic phase, by Fe (III) in 0.25M H2 SO4 (pH=0.3) at 22° C. The conditions represent a severe test of aqueous solubility since the pH favors FeA^++ formation, where A=hydroxamate anion. […] With regard to hydroxamic acids with n less than 6, a compound with n=4, i.e. N-methyl hexanohydroxamic acid, was approximately 35% pulled into the aqueous phase.

[7] = Stirred-beaker extraction, 2% H2SO4 wash and 30% H2SO4 strip of gallium from phosphate treater dust leachate (Examples 1-7); conditions: 5 minutes extraction
Protocol: A gallium extraction was carried out in a stirred beaker, utilizing N-ethylnaphthenohydroxamic acid as extracting agent. A 20 ml solution that was 1.6 M in the hydroxamic acid in a petroleum distillate fraction (Kermac 470-B) was provided in the beaker by mixing 11.632 grams of 80.6% purity N-ethylnaphthenohydroxamic with the petroleum distillate to bring the volume to 20 ml. An equal volume of an aqueous phosphate treater dust leachate solution containing gallium was added. The gallium level in the leachate solution was 597 ppm and its pH was 1.55. The extraction was carried out at circa 55°-60° C. with stirring, and sampling of the aqueous phase at intervals (with interruption of the stirring).
At the end of the extraction, the organic and aqueous phases were separated. The organic phase was washed three times with 20 ml portions of 2% sulfuric acid, the washings being conducted at 57°-59° C. for five minutes each. […] The organic phase was then combined with 20 ml of 30% H2 SO4 in a procedure to strip the gallium. The stripping was carried out at about 60° C. with sampling at intervals to determine the amount of gallium present in the aqueous phase.

In the case of CCCCCCCC(=O)NO [caprylhydroxamic acid], the hydrolysis [1] is given as “hydrolysis occurs rather slowly”.
For CCCCCCCCCCc1ccc(C(=O)N(C)O)cc1 [N-methyl 4-decylbenzo HA], the “% DECOMPOSITION” value [2] was 38.6%.
In the case of N-ethylnaphthenohydroxamic acid, the “% DECOMPOSITION” value [2] is reported as 1.0% and the “% Decomposition (hydrolysis of hydroxamic acid)” value [2] is reported as -0.53%.
For N-methyl isostearohydroxamic acid, the “VISCOSITY ORGANIC SOL.” value ([3]; Table 13) was “V. Low”, the “solubility in KEROSENE” value ([3]; Table 13) was “V. Soluble (V. Soluble = dissolves in molar quantities (>1) (V = very))” and the “solubility in KEROSENE WITH ISODECANOL” value ([3]; Table 13) was “V. Soluble (V. Soluble = dissolves in molar quantities (>1) (V = very))”.
For N-methylnaphthenohydroxamic acid, the “VISCOSITY ORGANIC SOL.” value [3] was “Medium”, the “HA in aqueous phase” value ([4]; b715 pH 10.57, b719 after adding 10 ml isodecanol) was “negative” and the “HA in aqueous phase” value ([4]; pH 11.91) was 0.65 M. The “test for hydroxamic acid in aqueous phase” value ([4]; pH 8.26) was “negative”, the “extractant concentration after stripping (original 1M)” value ([5]; possibly mechanical losses and some dilution) was 0.8744 M and the “% Decomposition (hydrolysis of hydroxamic acid)” value (extraction-wash-strip cycle) was “+0.14%”. For the same compound, the “% DECOMPOSITION” value (used extractant solutions) was 4.99%.
For CCCCCC(=O)N(C)O [N-methyl hexanohydroxamic acid], the “extractant pulled into the aqueous phase” value [6] was “approximately 35%”.
For N-methylneodecanohydroxamic acid, the “% DECOMPOSITION” value [2] was 0.13%.
In the case of “naphthenohydroxamic acid [reference compound]”, the “VISCOSITY ORGANIC SOL.” value ([3]; Table 13) is reported as “High”, the “solubility in KEROSENE” value ([3]; Table 13) is reported as “Low” and the “solubility in KEROSENE WITH ISODECANOL” value ([3]; Table 13) is reported as “Low”. The decomposition ([5]; after acid stripping) was 91%, the “% DECOMPOSITION” value [2] was 42.5% and the “% Decomposition (hydrolysis of hydroxamic acid)” value [2] was 45%. The “% Decomposition (hydrolysis of hydroxamic acid)” value ([2]; listed as N--H naphthenohydroxamic acid) was 45.0%, the “% Decomposition (hydrolysis of hydroxamic acid)” value ([2]; listed as unsubstituted hydroxamic acid) was 45% and the “Ga remaining in aqueous phase” value [7] was 3.6 ppm.
With neodecanohydroxamic acid the “Ga remaining in aqueous phase” value [7] was 3 ppm.
With N-n-propylnaphthenohydroxamic acid the “% DECOMPOSITION” value [2] was 4.6% and the “% Decomposition (hydrolysis of hydroxamic acid)” value [2] was “+0.74%”.
In the case of neotridecanohydroxamic acid, the “VISCOSITY ORGANIC SOL.” value ([3]; Table 13) is reported as “High”, the “solubility in KEROSENE” value ([3]; Table 13) is reported as “Soluble” and the “solubility in KEROSENE WITH ISODECANOL” value ([3]; Table 13) is reported as “Soluble”.
